Experimental data from publication PMC3726336, “Product inhibition of cellulases studied with ^14C-labeled cellulose substrates” (Biotechnology for Biofuels, 2013).

Key:
TrCel6A [1] = target: T1, TrCel6A (Trichoderma reesei, UniProt P07987); test: Cellobiose inhibition of synergistic hydrolysis of 14C-BC by TrCel6A and EG TrCel5A; format: biochemical
T1 construct: TrCel6A was purified from the culture filtrate of Tr QM 9414 as described previously; made in house; host or cells: Trichoderma reesei QM 9414 culture filtrate (native producer)
T1 sequence (P07987 25-471): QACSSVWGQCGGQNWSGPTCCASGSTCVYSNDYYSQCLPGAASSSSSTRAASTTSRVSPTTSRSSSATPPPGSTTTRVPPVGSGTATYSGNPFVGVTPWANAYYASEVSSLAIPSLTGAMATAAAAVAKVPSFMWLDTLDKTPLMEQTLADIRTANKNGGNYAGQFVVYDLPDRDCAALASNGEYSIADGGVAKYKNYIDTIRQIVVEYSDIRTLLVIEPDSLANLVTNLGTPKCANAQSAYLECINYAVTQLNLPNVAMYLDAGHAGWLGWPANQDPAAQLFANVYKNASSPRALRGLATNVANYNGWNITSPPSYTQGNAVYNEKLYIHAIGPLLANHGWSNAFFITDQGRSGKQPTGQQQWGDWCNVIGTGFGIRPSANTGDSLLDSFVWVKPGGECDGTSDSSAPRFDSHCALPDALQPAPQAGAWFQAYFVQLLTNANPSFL
From the text: (§1) Here, we characterized the cellobiose and glucose inhibition of TrCel6A and its thermophilic counterpart, CtCel6A [9, 63]. First, the cellobiose inhibition of the synergistic hydrolysis of ^14C-BC by TrCel6A and TrCel5A was studied (Figure 7A). As TrCel6A was less sensitive to cellobiose inhibition than TrCel7A, the contribution of the cellobiose released during hydrolysis was not significant, and an average (DCB/DCB=0) over all time points was used in plotting (DCB/DCB=0) versus [cellobiose] (Figure 7D). No significant systematic variation of DCB/DCB=0 depending on hydrolysis time was observed. As in the case of GH7 CBHs, the IC50 value was found using Equations 5 and 6. Because the IC50 value for synergistic hydrolysis (Table 3) was of the same order as the apparent Ki value reported for TrCel5A [31], we further tested the inhibition of individual TrCel6A. BC is not a good substrate for TrCel6A, but its acid-treated derivative, BMCC, is readily degraded by the enzyme. Therefore, we prepared ^14C-BMCC by the heterogeneous acid hydrolysis of ^14C-BC. Without supplied cellobiose, both enzymes had similar activity with the ^14C-BMCC substrate, but CtCel6A was somewhat more resistant to cellobiose inhibition (Figure 7D, Table 3). The IC50 value for TrCel6A by itself was similar to that found for the synergistic hydrolysis. […]

TrCel6A [2] = target: T1, TrCel6A; test: Inhibition of hydrolysis of 14C-BMCC by TrCel6A; format: biochemical
From the text: as §1, with “^14C-BC.” for “^14C-BC. Without supplied cellobiose, both enzymes had similar activity with the ^14C-BMCC substrate, but CtCel6A was somewhat more resistant to cellobiose inhibition (Figure 7D, Table 3). The IC50 value for TrCel6A by itself was similar to that found for the synergistic hydrolysis.”
GH6 CBHs were assessed by observing the hydrolysis of ^14C-BMCC. ^14C-BMCC (0.25 g l^-1) was incubated (with shaking at 350 rpm) with CBH (0.25 μM) and N188BG (0.06 μM) in 50 mM sodium acetate buffer, pH 5.0, containing BSA (0.1 g l^-1). […]

TrCel5A = target: T2, TrCel5A (Trichoderma reesei, UniProt P07982); test: Cellobiose inhibition of hydrolysis of 14C-amorphous cellulose by TrCel5A; format: biochemical; conditions: TrCel5A (5.0 nM), 35°C, not accountable by Equation 5
T2 construct: TrCel7B, TrCel5A, and TrCel12A were purified from the culture filtrate of Tr QM 9414; made in house; host or cells: Trichoderma reesei QM 9414 culture filtrate (native producer)
T2 sequence (P07982 22-418): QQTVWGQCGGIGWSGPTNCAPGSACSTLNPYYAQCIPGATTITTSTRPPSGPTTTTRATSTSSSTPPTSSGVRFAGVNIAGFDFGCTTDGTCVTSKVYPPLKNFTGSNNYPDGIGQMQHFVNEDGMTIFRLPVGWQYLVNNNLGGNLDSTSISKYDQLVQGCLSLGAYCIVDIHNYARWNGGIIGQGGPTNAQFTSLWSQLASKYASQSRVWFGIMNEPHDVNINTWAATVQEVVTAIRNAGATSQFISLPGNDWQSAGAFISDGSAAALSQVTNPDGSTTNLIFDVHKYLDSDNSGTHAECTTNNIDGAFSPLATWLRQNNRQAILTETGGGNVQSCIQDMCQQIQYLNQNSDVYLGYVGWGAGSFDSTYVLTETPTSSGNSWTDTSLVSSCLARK
From the text: EGs are a diverse group of enzymes present in all efficient cellulase systems. Their best recognized function is their synergism with CBHs. Depending on the conditions, the degree of synergistic effect may be more than 10-fold. Therefore, the inhibition of the EG component may result in a drastic decrease in the rate of the synergistic hydrolysis of cellulose. The main soluble product of the EG-catalyzed cellulose hydrolysis is cellobiose, but some glucose and higher-order oligosaccharides are also produced. Here, we studied the cellobiose inhibition of the EGs TrCel7B, TrCel5A and TrCel12A with ^14C-amorphous cellulose substrate. The enzyme concentrations and hydrolysis times were adjusted so that the linear region of the time course was studied. The time courses for the hydrolysis of ^14C-amorphous cellulose by TrCel7B in the presence and absence of added cellobiose are shown in Figure 9A. For the results with TrCel5A and TrCel12A, see Additional file 1: Figure S5. […] This figure is reasonably well in line with that measured for TrCel7B on amorphous cellulose using isothermal titration calorimetry. […]
EGs were assessed on ^14C-amorphous cellulose. ^14C-amorphous cellulose (0.5 g l^-1) was incubated (with shaking at 700 rpm) with EG in 50 mM sodium acetate buffer, pH 5.0, containing BSA (0.1 g l^-1) in the presence and absence of added cellobiose. […]

TrCel12A = tested on: TrCel12A; parameters: method as in PMID 15129433; conditions: 3H-reduced amorphous cellulose, cellobiose 1 mM – 100 mM; cited from earlier work

Compound: O=C[C@H](O)[C@@H](O)[C@H](O[C@@H]1O[C@H](CO)[C@@H](O)[C@H](O)[C@H]1O)[C@H](O)CO [cellobiose, Cellobiose]
- IC50 (TrCel6A [1]): 16 ± 0.5 mM
- IC50 (TrCel6A [2]): 20 ± 1.4 mM
- IC50 (approximate, by visual inspection of Figure 9B) (TrCel5A): few hundred millimolar range
- Effect of cellobiose on activity (TrCel12A): apparent activation
